Measured values reported in BigSolDB 2.1.

CCn1c2ccccc2c2ccccc21
solubility (mole fraction)
Conditions | in ethanol | in isopropanol | in methanol | in n-butanol | in n-pentanol | in n-propanol
279.15 K | 0.0069 | 0.0065 | 0.0028 | 0.0135 | – | 0.0092
283.15 K | 0.008 | 0.0076 | 0.0033 | 0.0151 | 0.016 | 0.0105
287.15 K | 0.0095 | 0.009 | 0.004 | 0.0172 | 0.0183 | 0.0124
291.15 K | 0.0112 | 0.0107 | 0.0047 | 0.0208 | 0.021 | 0.0142
295.15 K | 0.013 | 0.0127 | 0.0057 | 0.0234 | 0.025 | 0.0169
299.15 K | 0.0149 | 0.0152 | 0.0068 | 0.0271 | 0.0292 | 0.0202
303.15 K | 0.0182 | 0.0183 | 0.0082 | 0.0316 | 0.035 | 0.024
307.15 K | 0.0228 | 0.0223 | 0.0098 | 0.0379 | 0.042 | 0.028
311.15 K | 0.0274 | 0.028 | 0.012 | 0.0446 | 0.05 | 0.033
315.15 K | 0.0355 | 0.0342 | 0.0147 | 0.0522 | 0.0609 | 0.0401
319.15 K | 0.0433 | 0.0436 | 0.0179 | 0.0621 | 0.0743 | 0.048
